For one data set, the system named is Rat hepatocytes. Put plainly: Hepatocyte clearance, rat hepatocytes. The format is in vitro ADME. The following applies: percent unchanged.
Data set [1] in a line: MDCK-Wild Type permeability, 96 well + 0.1% BSA. The format is in vitro ADME. The settings on record: dog, MDCK, A-B direction, read-out: MDCK-Wild Type-Permeability 96 well + 0.1% BSA Papp compound (A-B).
The target in the next data set is T1, F508del-CFTR (Homo sapiens, UniProt P13569, DEL508-508).
T1 construct: expressed in transfected cells
T1 sequence (P13569 with tags, fused parts or gaps DEL508-508): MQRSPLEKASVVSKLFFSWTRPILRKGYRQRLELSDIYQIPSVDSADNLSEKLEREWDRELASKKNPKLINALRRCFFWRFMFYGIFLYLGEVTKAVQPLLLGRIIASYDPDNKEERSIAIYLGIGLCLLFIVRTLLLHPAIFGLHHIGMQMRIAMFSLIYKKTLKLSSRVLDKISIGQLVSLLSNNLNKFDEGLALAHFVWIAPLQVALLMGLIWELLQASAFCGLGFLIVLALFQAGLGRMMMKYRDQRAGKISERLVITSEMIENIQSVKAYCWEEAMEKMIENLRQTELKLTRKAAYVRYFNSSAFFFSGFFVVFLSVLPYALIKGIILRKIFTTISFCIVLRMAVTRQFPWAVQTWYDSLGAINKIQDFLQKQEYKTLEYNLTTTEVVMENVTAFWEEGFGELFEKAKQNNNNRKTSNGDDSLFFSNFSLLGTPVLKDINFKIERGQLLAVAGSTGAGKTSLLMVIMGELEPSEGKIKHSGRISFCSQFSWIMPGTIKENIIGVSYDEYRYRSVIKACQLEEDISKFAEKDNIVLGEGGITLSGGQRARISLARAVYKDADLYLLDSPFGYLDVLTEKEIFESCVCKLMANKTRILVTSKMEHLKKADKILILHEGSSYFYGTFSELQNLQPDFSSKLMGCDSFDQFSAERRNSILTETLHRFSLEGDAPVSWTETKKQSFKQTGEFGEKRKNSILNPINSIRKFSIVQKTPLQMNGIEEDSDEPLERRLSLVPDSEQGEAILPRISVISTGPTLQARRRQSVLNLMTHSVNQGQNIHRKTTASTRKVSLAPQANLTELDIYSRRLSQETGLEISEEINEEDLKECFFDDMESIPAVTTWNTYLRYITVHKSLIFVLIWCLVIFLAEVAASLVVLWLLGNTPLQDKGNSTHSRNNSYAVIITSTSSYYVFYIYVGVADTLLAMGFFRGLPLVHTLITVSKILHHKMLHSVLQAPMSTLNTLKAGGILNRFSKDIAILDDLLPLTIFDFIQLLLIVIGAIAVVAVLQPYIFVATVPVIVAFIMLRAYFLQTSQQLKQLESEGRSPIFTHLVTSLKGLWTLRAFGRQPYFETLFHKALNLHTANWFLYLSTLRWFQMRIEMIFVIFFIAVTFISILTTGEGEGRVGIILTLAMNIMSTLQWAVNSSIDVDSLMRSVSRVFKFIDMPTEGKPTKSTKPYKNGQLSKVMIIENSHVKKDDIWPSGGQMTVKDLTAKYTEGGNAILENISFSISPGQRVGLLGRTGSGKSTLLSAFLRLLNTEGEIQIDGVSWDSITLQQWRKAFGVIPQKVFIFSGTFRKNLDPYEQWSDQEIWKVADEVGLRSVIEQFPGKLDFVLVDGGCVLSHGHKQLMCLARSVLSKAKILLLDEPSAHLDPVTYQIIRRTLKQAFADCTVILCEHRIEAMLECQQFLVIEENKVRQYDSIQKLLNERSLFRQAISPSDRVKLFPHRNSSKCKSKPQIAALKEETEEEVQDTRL
Put plainly: Membrane potential optical (FLIPR) assay for F508del-CFTR modulators in NIH 3T3 cells. Format: cell-based. The settings on record: NIH 3T3 cells expressing F508del; assay A1; read-out: CFTRdF508 Cor 3T3 FLIPR 384 CFTRdF508 MP 3T3 770 EC50. The source says:
Membrane Potential Optical Methods for Assaying Properties of F508del-CFTR Modulators
The assay utilizes fluorescent voltage sensing dyes to measure changes in membrane potential using a fluorescent plate reader (e.g., FLIPR III, Molecular Devices, Inc.) as a readout for increase in functional F508del in NIH 3T3 cells. The driving force for the response is the creation of a chloride ion gradient in conjunction with channel activation and concurrent with compound treatment by a single liquid addition step after the cells have previously been loaded with a voltage sensing dye.
A1. Identification of F508del-CFTR Modulators
To identify modulators of F508del, a fluorescence based HTS assay format was developed. This HTS assay utilizes fluorescent voltage sensing dyes to measure changes in membrane potential on the FLIPR III as a measurement for increase in gating (conductance) of F508del NIH 3T3 cells. The driving force for the response is the creation of a chloride ion gradient in conjunction with channel activation and concurrent with compound treatment by a single liquid addition step after the cells have previously been loaded with a voltage sensing dye.
Bath Solution #1: (in mM) NaCl 160, KCl 4.5, CaCl2 2, MgCl2 1, HEPES 10, pH 7.4 with NaOH, Glucose 10.
Chloride-free bath solution: Chloride salts in Bath Solution #1 (above) are substituted with gluconate salts.
NIH3T3 mouse fibroblasts stably expressing F508del were used for optical measurements of membrane potential. The cells were maintained at 37° C. in 5% CO2 and 90% humidity in Dulbecco's modified Eagle's medium supplemented with 2 mM glutamine, 10% fetal bovine serum, 1×NEAA, β-ME, 1× pen/strep, and 25 mM HEPES in 175 cm^2 culture flasks. For all optical assays, the cells were seeded at 12,000 cells/well in 384-well matrigel-coated plates and cultured for 18-24 hrs at 37° C. for the potentiator assay. For the correction assay, the cells were cultured at 37° C. with and without compounds for 18-24 hours.

The target in another data set is T2, human PXR (Homo sapiens, UniProt O75469).
T2 construct: host or cells: DPX-2 cell line (derived from HepG2)
T2 sequence (O75469 1-434): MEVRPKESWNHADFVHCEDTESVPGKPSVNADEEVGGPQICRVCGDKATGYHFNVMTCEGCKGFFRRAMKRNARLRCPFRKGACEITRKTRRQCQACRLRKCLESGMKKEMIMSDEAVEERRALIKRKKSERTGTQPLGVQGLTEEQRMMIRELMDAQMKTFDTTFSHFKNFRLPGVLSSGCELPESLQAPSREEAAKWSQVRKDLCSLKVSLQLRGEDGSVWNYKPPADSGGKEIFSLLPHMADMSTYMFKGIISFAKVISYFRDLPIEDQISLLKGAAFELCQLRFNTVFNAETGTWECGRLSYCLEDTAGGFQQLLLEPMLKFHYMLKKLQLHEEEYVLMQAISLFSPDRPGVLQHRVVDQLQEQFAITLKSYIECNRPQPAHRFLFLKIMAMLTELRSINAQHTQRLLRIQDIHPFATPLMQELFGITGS
Put plainly: PXR assay: PXR mediated CYP3A4 induction in DPX-2 cell line. The format is cell-based. The settings on record: DPX-2 cells. As for the experimental part: D. Experimental Protocol for PXR Assay
The propensity for PXR mediated CYP3A4 induction is assessed using the DPX-2 cell line in vitro. This cell line, which has been licensed from Puracyp Inc. was derived from HepG2 cells and has been stably transfected with genes encoding human PXR as well as a modified luciferase reporter linked to the CYP3A4 promoter region and related distal and proximal enhancers.
The assay is run in 384 well format and each test article is administered in 11 doses ranging from 0.1 to 60 μM. On day 1, DPX-2 cells which have previously been expanded in-house and cryopreserved are thawed and seeded in tissue culture plates. The following day, media is changed and cells are cultured in media containing test article, vehicle control or the positive control compound, the clinically validated CYP3A4 inducer rifampicin. Cells are cultured in the presence of test article for 48 hours and then cell viability is assessed using fluorescence based assay (Cell Titer-Fluor, Promega) with an EnVision Plate Reader (PerkinElmer). Subsequently, CYP3A4 transactivation, which is proportional to luciferase activity, is measured by reading luminescense using the Promega One-Glo reagent system using the same plate reader.
Data processing within the Genedata software package allows reporting of max fold induction compared to vehicle control, an EC50 value for CYP3A4 inducers and an 11 point-dose response curve.

Usually Papp A→B stands for how fast a substance crosses the layer from the apical side. Broadly, the EC50 is the midpoint of the concentration-response curve. Consider `Cc1nn(C)cc1S(=O)(=O)NC(=O)c1ccc(-n2ccc(OCC3(C(F)(F)F)CC3)n2)nc1N1CC(C(C)(C)C)CC1(C)C` (single isomer, unassigned) [Compound 54, 2-(4-tert-butyl-2,2-dimethyl-pyrrolidin-1-yl)-N-(1,3-dimethylpyrazol-4-yl)sulfonyl-6-[3-[[1-(trifluoromethyl)cyclopropyl]methoxy]pyrazol-1-yl]pyridine-3-carboxamide], for which, in the data set with Rat hepatocytes, the “Hepatocyte clearance-Rat Rat hepatocytes CL pct_unchanged” value was found to be 30%. In addition, in data set [1], the Papp A→B was determined as 11 nm/s. In addition, the EC50 at F508del-CFTR was 0.05 µM. In addition, at human PXR, the “CYP3A4 Induction-PXR human PXR internal Max % Activity” value amounted to 5%.

As for `C[C@@H]1CN(c2nc(-n3ccc(OCC(C)(C)C)n3)ccc2C(=O)NS(=O)(=O)c2ccc[nH]c2=O)C(C)(C)C1` [B, reference compound], the “Hepatocyte clearance-Rat Rat hepatocytes CL pct_unchanged” value in the data set on Rat hepatocytes came out at 13%. The Papp A→B in data set [1] worked out at 4 nm/s. Besides, the EC50 at F508del-CFTR came out at 0.26 µM. For the same compound, the “CYP3A4 Induction-PXR human PXR internal Max % Activity” value at human PXR is listed as 3%.

Turning to `C[C@@H]1CN(c2nc(-n3ccc(OCC4(C(F)(F)F)CC4)n3)ccc2C(=O)NS(=O)(=O)c2cn[nH]c2)C(C)(C)C1` [Compound 5, N-(1H-pyrazol-4-ylsulfonyl)-6-[3-[[1-(trifluoromethyl)cyclopropyl]methoxy]pyrazol-1-yl]-2-[(4S)-2,2,4-trimethylpyrrolidin-1-yl]pyridine-3-carboxamide], the “Hepatocyte clearance-Rat Rat hepatocytes CL pct_unchanged” value in the data set with Rat hepatocytes is on record as 33%. In data set [1], the Papp A→B stood at 3 nm/s. Further, on F508del-CFTR, the EC50 was determined as 1.3 µM. The “CYP3A4 Induction-PXR human PXR internal Max % Activity” value at human PXR was 0%.

Take `C[C@@H]1CN(c2nc(-n3ccc(OCC4(C(F)(F)F)CC4)n3)ccc2C(=O)NS(=O)(=O)c2cnn(C)c2)C(C)(C)C1` [Compound 6, N-(1-methylpyrazol-4-yl)sulfonyl-6-[3-[[1-(trifluoromethyl)cyclopropyl]methoxy]pyrazol-1-yl]-2-[(4S)-2,2,4-trimethylpyrrolidin-1-yl]pyridine-3-carboxamide]: in the data set with Rat hepatocytes, the “Hepatocyte clearance-Rat Rat hepatocytes CL pct_unchanged” value was 53%. The Papp A→B in data set [1] was 21 nm/s. The EC50 on F508del-CFTR was 0.3 µM. Besides, at human PXR, the “CYP3A4 Induction-PXR human PXR internal Max % Activity” value is reported as 0.9%.

With `CCn1cc(S(=O)(=O)NC(=O)c2ccc(-n3ccc(OCC4(C(F)(F)F)CC4)n3)nc2N2C[C@@H](C)CC2(C)C)cn1` [Compound 7, N-(1-ethylpyrazol-4-yl)sulfonyl-6-[3-[[1-(trifluoromethyl)cyclopropyl]methoxy]pyrazol-1-yl]-2-[(4S)-2,2,4-trimethylpyrrolidin-1-yl]pyridine-3-carboxamide], the Papp A→B in data set [1] stood at 31 nm/s. Also, the EC50 at F508del-CFTR was determined as 0.65 µM. At human PXR, the “CYP3A4 Induction-PXR human PXR internal Max % Activity” value turned out to be 4%.

`C[C@@H]1CN(c2nc(-n3ccc(OCC4(C(F)(F)F)CC4)n3)ccc2C(=O)NS(=O)(=O)c2cnn(C(C)(C)C)c2)C(C)(C)C1` [Compound 8, N-(1-tert-butylpyrazol-4-yl)sulfonyl-6-[3-[[1-(trifluoromethyl)cyclopropyl]methoxy]pyrazol-1-yl]-2-[(4S)-2,2,4-trimethylpyrrolidin-1-yl]pyridine-3-carboxamide]: the “Hepatocyte clearance-Rat Rat hepatocytes CL pct_unchanged” value in the data set on Rat hepatocytes is given as 62%. Also, the Papp A→B in data set [1] stood at 32 nm/s. The EC50 on F508del-CFTR worked out at 0.4 µM. For the same compound, the “CYP3A4 Induction-PXR human PXR internal Max % Activity” value on human PXR is on record as 10%.

As to `Cc1nn(C)c(C)c1S(=O)(=O)NC(=O)c1ccc(-n2ccc(OCC3(C(F)(F)F)CC3)n2)nc1N1C[C@@H](C)CC1(C)C` [Compound 16, 6-[3-[[1-(trifluoromethyl)cyclopropyl]methoxy]pyrazol-1-yl]-N-(1,3,5-trimethylpyrazol-4-yl)sulfonyl-2-[(4S)-2,2,4-trimethylpyrrolidin-1-yl]pyridine-3-carboxamide], the “Hepatocyte clearance-Rat Rat hepatocytes CL pct_unchanged” value with Rat hepatocytes is recorded as 10%. Also, the Papp A→B in data set [1] amounted to 39 nm/s. For the same compound, at F508del-CFTR, the EC50 stood at 0.4 µM. Besides, the “CYP3A4 Induction-PXR human PXR internal Max % Activity” value on human PXR is 13%.

Take `Cc1nn(C)cc1S(=O)(=O)NC(=O)c1ccc(-n2ccc(OCC3(C(F)(F)F)CCC3)n2)nc1N1C[C@@H](C)CC1(C)C` [Compound 19, N-(1,3-dimethylpyrazol-4-yl)sulfonyl-6-[3-[[1-(trifluoromethyl)cyclobutyl]methoxy]pyrazol-1-yl]-2-[(4S)-2,2,4-trimethylpyrrolidin-1-yl]pyridine-3-carboxamide]: in data set [1], the Papp A→B amounted to 88 nm/s. The EC50 on F508del-CFTR is 0.09 µM. Besides, the “CYP3A4 Induction-PXR human PXR internal Max % Activity” value on human PXR came to 1%.

Regarding `Cc1c(S(=O)(=O)NC(=O)c2ccc(-n3ccc(OCC4CC45CC5)n3)nc2N2C[C@@H](C)CC2(C)C)cnn1C` (stereo partly drawn) [Compound 26, N-(1,5-dimethylpyrazol-4-yl)sulfonyl-6-[3-(spiro[2.2]pentan-2-ylmethoxy)pyrazol-1-yl]-2-[(4S)-2,2,4-trimethylpyrrolidin-1-yl]pyridine-3-carboxamide], the Papp A→B in data set [1] worked out at 23 nm/s. Further, at F508del-CFTR, the EC50 is 1 µM. Also, the “CYP3A4 Induction-PXR human PXR internal Max % Activity” value on human PXR was 6%.

For the compound `Cc1nn(C)cc1S(=O)(=O)NC(=O)c1ccc(-n2ccc(OCC(C3CC3)C3CC3)n2)nc1N1C[C@@H](C)CC1(C)C` [Compound 32, 6-[3-(2,2-dicyclopropylethoxy)pyrazol-1-yl]-N-(1,3-dimethylpyrazol-4-yl)sulfonyl-2-[(4S)-2,2,4-trimethylpyrrolidin-1-yl]pyridine-3-carboxamide], in data set [1], the Papp A→B was found to be 38 nm/s. The EC50 at F508del-CFTR came out at 0.2 µM. In addition, the “CYP3A4 Induction-PXR human PXR internal Max % Activity” value on human PXR was determined as 5%.

As for `Cc1nn(C)cc1S(=O)(=O)NC(=O)c1ccc(-n2ccc(OCC(C)(C)C(F)(F)F)n2)nc1N1C[C@H](C)CC1(C)C` [Compound 37, N-(1,3-Dimethylpyrazol-4-yl)sulfonyl-6-[3-(3,3,3-trifluoro-2,2-dimethyl-propoxy)pyrazol-1-yl]-2-[(4R)-2,2,4-trimethylpyrrolidin-1-yl]pyridine-3-carboxamide], in data set [1], the Papp A→B was determined as 51 nm/s. The EC50 on F508del-CFTR worked out at 0.29 µM. In addition, the “CYP3A4 Induction-PXR human PXR internal Max % Activity” value at human PXR is on record as 7%.

Take `Cc1nn(C)cc1S(=O)(=O)NC(=O)c1ccc(-n2ccc(OC(C3CC3)C3CC3)n2)nc1N1C[C@@H](C)CC1(C)C` [Compound 48, 6-[3-(Dicyclopropylmethoxy)pyrazol-1-yl]-N-(1,3-dimethylpyrazol-4-yl)sulfonyl-2-[(4S)-2,2,4-trimethylpyrrolidin-1-yl]pyridine-3-carboxamide]: the Papp A→B in data set [1] turned out to be 46 nm/s. In addition, on F508del-CFTR, the EC50 was 1 µM. For the same compound, on human PXR, the “CYP3A4 Induction-PXR human PXR internal Max % Activity” value came out at 8%.

On to `C[C@@H]1CN(c2nc(-n3ccc(OCC4CCC4)n3)ccc2C(=O)NS(=O)(=O)c2cccnc2N)C(C)(C)C1` [D, reference compound], for which the “Hepatocyte clearance-Rat Rat hepatocytes CL pct_unchanged” value in the data set with Rat hepatocytes came to 19%. At F508del-CFTR, the EC50 amounted to 0.21 µM. The “CYP3A4 Induction-PXR human PXR internal Max % Activity” value on human PXR worked out at 10%.
